From publication PMC12766724, “Synthesis, Anthelmintic Activity, and Mechanism of Action of 5‑Aryl‑1H‑indoles” (Journal of Agricultural and Food Chemistry, 2025)
Values after ≈ are worked out from the molar mass of the structure shown.

Legend:
[1] = tested on: C. elegans wild-type N2; test: Microscopic scoring (score 1-5) of worm populations prior to the Chitinase assay, L1 exposed 4 days; format: in vivo, Caenorhabditis elegans; details: 50 μM; score 1 (dead/arrested L1) to 5 (healthy)
Text: Dead or mostly immobile worms, arrested at the L1 stage, received a score of 1. Populations with severely delayed development were scored as 2. More developmentally advanced, but still obviously delayed worms were given the score of 3. Adult worms that produce a noticeably lower number of progeny received a score of 4. Healthy worms that reproduce normally (i.e., hundreds of eggs and larvae are present) were scored as 5 (see Figure C for representative images). In a typical, correctly prepared experiment, vehicle-treated populations should receive a score of 5, while worms treated with ivermectin (positive control) should receive a score of 1.
(§1) After exposing L1 larvae to the compounds for 4 days, we observed the populations under a microscope and measured the Chitinase activity. The larvae produce the enzyme while hatching, and its activity is indicative of the reproductive capacity of the worms. Populations that fail to reproduce due to acute or reproductive toxicity or developmental abnormalities are detected.

[2] = tested on: Meloidogyne incognita; set-up: method as in not printed (reference number lost in b5); details: ref not printed (reference number lost in b5); cited from earlier work
[3] = tested on: C. elegans N2 wild-type; test: Chitinase assay (reproductive capacity); format: in vivo, Caenorhabditis elegans; details: Caenorhabditis elegans
Procedure: (§2) The effect of compounds on C. elegans was evaluated using the Chitinase assay as we described previously.
as §1

[4] = tested on: human keratinocytes (HaCaT); test: Resazurin assay, 3-day treatment; format: cell-based
Procedure: (§3) Skin fibroblasts (BJ) were obtained from the American Type Culture Collection (ATCC, Manassas, VA), while human keratinocytes (HaCaT) were sourced from the German Cancer Research Center in Heidelberg, Germany. Cells were cultured in a standard DMEM medium from Sigma-Aldrich, supplemented with 10% fetal bovine serum, 2 mM glutamine, 100 U/mL penicillin, and 100 μg/mL streptomycin. Cultures were maintained under standard conditions (37 °C, 5% CO2, humidified atmosphere) and subcultured two to three times per week. We assessed the effect of 3-day compound treatments on cell viability using a resazurin reduction assay measuring mitochondrial activity. Approximately 5,000 cells in 80 μL of culture medium were seeded into the wells of a 96-well plate. Twenty-four hours later, 20 μL of 5-fold concentrated test compound solutions was added and tested across three concentrations prepared through 2-fold serial dilutions. The highest final concentration was 40 μM. After 72 h, we added an 11-fold concentrated resazurin solution to the wells, achieving a final concentration of 0.0125 μM. Fluorescence (ex = 570 nm, em = 610 nm) was measured after 3 h of incubation.
The disubstituted derivatives i-25 and i-27 were the most toxic in the set, causing around a 50% decrease in viability of HaCaT cells at 40 μM.

[5] = tested on: Skin fibroblasts (BJ); test: Resazurin assay, 3-day treatment; format: cell-based, human; details: BJ
Procedure: as §3, with “incubation. […]” for “incubation.”

[6] = tested on: Arabidopsis thaliana Col-0; test: Germination rate and phytotoxicity; format: in vivo; details: for average fraction of germinated seeds: 5 DPS; for main root length / plant weight: 10 DPS
Procedure: Wild-type A. thaliana (Col-0 ecotype) seeds were sterilized with 70% EtOH with 0.1% Tween-20 solution (2 × 1 mL) for 10 min, rinsed with 96% EtOH (1 × 1 mL) for 10 min, and kept in the fridge (4 °C in the dark). Seeds were sown on a sterile 1/2 MS medium supplemented with 0.3% DMSO as a mock and test compounds at 5, 10, 50, and 100 μM concentrations in 0.3% DMSO. Plates were kept in long-day light conditions (22 °C/20 °C, 16 h light/8 h dark, 100 μmol m^–2 s^–1). After 5 days, the germination rate was evaluated. After an additional 5 days, primary root growth was measured with ImageJ software (https://imagej.nih.gov/ij/), and seedlings were weighted.

[7] = Visual inspection of DMSO stock solutions; format: physicochemical; details: 50 mM in DMSO, stored at −20 °C
Procedure: For bioassays, all compounds were dissolved in dimethyl sulfoxide (DMSO) to prepare 50 mM stock solutions. Stock solutions were stored at −20 °C and diluted in water or the appropriate media for each bioassay to achieve the final concentrations indicated below. Solubility was evaluated by visual inspection of stock solutions (assessing clarity or cloudiness) and by microscopic examination of media to detect potential crystal formation. The final DMSO concentrations in the bioassays were kept at levels that had no detectable impact on test organisms, as determined by comparison with water-treated controls (0.1% for cell cultures, 0.2% for nematodes, and 0.3% for Arabidopsis thaliana Col-0).

[8] = tested on: age unsynchronized Ditylenchus destructor; test: Motility on WMicrotracker ONE; format: in vivo
Procedure: Populations of D. destructor, kindly provided by Central Institute for Supervising and Testing in Agriculture, the Ministry of Agriculture of the Czech Republic, were maintained according to the protocol previously described here.
(§4) The effect of compounds on motility of H. contortus, D. destructor, and H. schachtii was evaluated using the WMicrotracker ONE platform according to previously published protocols. ,
(§5) The instrument evaluates the activity of small animals by counting how many times infrared light microbeams passing through the wells of a microtiter plate are interrupted. In age-unsynchronized populations of D. destructor, we observed reduced motility of worm populations treated with the halogenated derivatives i-19, i-20, and i-21 (Figures A, S2.1A, S2.2A and Table S2.1). […] The decreases in mean activity counts after 72 h of treatment at 100 μM were 85% and 97%, respectively.

[9] = tested on: Heterodera schachtii second-stage juveniles (J2); test: Motility on WMicrotracker ONE; format: in vivo
Procedure: H. schachtii was maintained on mustard (Sinapsis alba cv. Albatros) roots grown in vitro on modified KNOP medium according to the previously published protocols. ,
as §4, §5

[10] = tested on: C. elegans DA1316 avr-14(ad1305) I; avr-15(vu227) glc-1(pk54) V.; test: Chitinase assay (reproductive capacity); format: in vivo; details: Caenorhabditis elegans; ivermectin-resistant strain
Procedure: (§6) C. elegans strains used in this study were N2 (wild-type), levamisole-resistant strains ZZ15 (lev-8(x15) X) and […] (lev-1(e211) IV), ivermectin-resistant strain DA1316 (avr-14(ad1305) I; avr-15(vu227) glc-1(pk54) V), mebendazole-resistant strain […] (ben-1(e1880) III), and three strains with mutations in succinate dehydrogenase, RP2699, RP2700, and RP2702. The worms were cultivated on Nematode Growth Medium agar plates seeded with Escherichia coli OP50 in 20 °C according to the standard cultivation protocols. Strains RP2699, RP2700, and RP2702 were generated by Prof. Peter Roy’s group. All other strains and bacteria were purchased from the Caenorhabditis Genetics Center (CGC, Minneapolis, MN).
as §2
(§7) Lastly, strain DA1316 has mutations in three genes encoding subunits of the glutamate-gated chloride channel and is highly resistant to avermectins.

[11] = tested on: C. elegans ZZ15 lev-8(x15) X.; test: Chitinase assay (reproductive capacity); format: in vivo; details: Caenorhabditis elegans; levamisole-resistant strain
Procedure: as §6, §2, §7

[12] = tested on: C. elegans CB3474 ben-1(e1880) III.; test: Chitinase assay (reproductive capacity); format: in vivo; details: Caenorhabditis elegans; mebendazole-resistant strain
Procedure: as §6, §2, §7

[13] = tested on: C. elegans CB211 lev-1(e211) IV.; test: Chitinase assay (reproductive capacity); format: in vivo; details: Caenorhabditis elegans; levamisole-resistant strain
Procedure: as §6, §2, §7

[14] = 10 µM group, initial (prior to the treatment)
[15] = 50 µM group, initial (prior to the treatment)
[16] = 100 µM group, initial (prior to the treatment)

IC50 [3] [µM]	SMILES	average score [1]	Average viability (signal intensity relative to control) ([4]; 10 µM)	Average viability (signal intensity relative to control) ([4]; 20 µM)	Average viability (signal intensity relative to control) ([4]; 40 µM)	Average viability (signal intensity relative to control) ([5]; 10 µM)	Average viability (signal intensity relative to control) ([5]; 20 µM)	Average viability (signal intensity relative to control) ([5]; 40 µM)	average fraction of germinated seeds ([6]; 5 µM)	main root length ([6]; 5 µM) [mm]	plant weight ([6]; 5 µM) [mg]	average fraction of germinated seeds ([6]; 10 µM)	main root length ([6]; 10 µM) [mm]	plant weight ([6]; 10 µM) [mg]	average fraction of germinated seeds ([6]; 50 µM)	main root length ([6]; 50 µM) [mm]	plant weight ([6]; 50 µM) [mg]	average activity counts [8, 14]	average activity counts ([8]; 10 µM, 48 h)	average activity counts ([8]; 10 µM, 72 h)	also measured
–	CCOc1ccc(-c2ccc3[nH]ccc3c2)cc1 [i-10]	1.8	–	–	–	–	–	–	–	–	–	–	–	–	–	–	–	–	–	–	–
–	CCOc1ccccc1-c1ccc2[nH]ccc2c1 [i-8]	2.5	–	–	–	–	–	–	–	–	–	–	–	–	–	–	–	–	–	–	–
–	O=C(O)Cc1c[nH]c2ccccc12 [Indole-3-acetic acid]	–	–	–	–	–	–	–	–	–	–	–	–	–	–	–	–	–	–	–	LC50 [2]: 117 µg/mL (≈ 668 µM)
7.6 ± 2.3	CC(C)c1ccc(-c2ccc3[nH]ccc3c2)cc1 [i-17]	–	0.98 ± 0.01	0.99 ± 0.01	0.87 ± 0.04	0.9 ± 0.01	0.92 ± 0.05	0.82 ± 0.07	0.95	38.83	35.01	0.98	37.53	28.28	0.89	31.19	26.18	228	211	212	stability of stock solutions [7]: precipitation of stock solutions after a single freeze–thaw cycle; average activity counts [8, 15]: 228; average activity counts ([8]; 50 µM, 48 h): 223; average activity counts ([8]; 50 µM, 72 h): 224; average activity counts [8, 16]: 245; average activity counts ([8]; 100 µM, 48 h): 206; average activity counts ([8]; 100 µM, 72 h): 212; average activity counts [9, 14]: 178; average activity counts ([9]; 10 µM, 48 h): 160; average activity counts ([9]; 10 µM, 72 h): 139; average activity counts [9, 15]: 181; average activity counts ([9]; 50 µM, 48 h): 158; average activity counts ([9]; 50 µM, 72 h): 158; average activity counts [9, 16]: 197; average activity counts ([9]; 100 µM, 48 h): 158; average activity counts ([9]; 100 µM, 72 h): 122
–	CCCOc1ccccc1-c1ccc2[nH]ccc2c1 [i-11]	1.5	–	–	–	–	–	–	–	–	–	–	–	–	–	–	–	–	–	–	–
9.74 ± 1.65	CCOc1cc(-c2ccc3[nH]ccc3c2)ccc1Cl [i-25]	–	0.93 ± 0.02	0.88 ± 0.06	0.53 ± 0.1	0.92 ± 0.01	0.9 ± 0.05	0.74 ± 0.06	0.98	38.29	30.25	0.95	38.15	31.97	0.96	34.25	27.79	234	221	194	decrease in viability ([4]; 40 µM): ~50%; average activity counts [8, 15]: 246; average activity counts ([8]; 50 µM, 48 h): 209; average activity counts ([8]; 50 µM, 72 h): 197; average activity counts [8, 16]: 230; average activity counts ([8]; 100 µM, 48 h): 210; average activity counts ([8]; 100 µM, 72 h): 203; average activity counts [9, 14]: 174; average activity counts ([9]; 10 µM, 48 h): 160; average activity counts ([9]; 10 µM, 72 h): 171; average activity counts [9, 15]: 178; average activity counts ([9]; 50 µM, 48 h): 184; average activity counts ([9]; 50 µM, 72 h): 170; average activity counts [9, 16]: 172; average activity counts ([9]; 100 µM, 48 h): 195; average activity counts ([9]; 100 µM, 72 h): 190; IC50 [10]: 9.93 ± 0.68 µM; IC50 [11]: 8.72 ± 0.13 µM; IC50 [12]: 7.79 ± 0.36 µM; IC50 [13]: 9.36 ± 0.43 µM
